Biological target: T1, mu opiate receptor (MOR) (Rattus norvegicus, UniProt P33535)
T1 construct: from tissue; host or cells: striatum (membrane preparation)
Assay: MOR agonist activity using [35S]GTPgS binding assay in striatal membranes
Type: biochemical
Procedure: To assess the mu opiate receptor (MOR) agonist activity of positive compounds from the FLNA screening, compounds were tested in a [^35S]GTPgS binding assay using striatal membranes. […] This assay measures a functional consequence of receptor occupancy at one of the earliest receptor-mediated events. The assay permits for traditional pharmacological parameters of potency, efficacy and antagonist affinity, with the advantage that agonist measures are not subjected to amplification or other modulation that may occur when analyzing parameters further downstream of the receptor.
Thus, striatal tissue was homogenized in 10 volumes of ice cold 25 mM HEPES buffer, pH 7.4, which contained 1 mM EGTA, 100 mM sucrose, 50 mg/ml leupeptin, 0.04 mM PMSF, 2 mg/ml soybean trypsin inhibitor and 0.2% 2-mercaptoethanol. The homogenates were centrifuged at 800×g for 5 minutes and the supernatants were centrifuged at 49,000×g for 20 minutes. The resulting pellets were suspended in 10 volume of reaction buffer, which contained 25 mM HEPES, pH 7.5, 100 mM NaCl, 50 mg/ml leupeptin, 2 mg/ml soybean trypsin inhibitor, 0.04 mM PMSF and 0.02% […].
The resultant striatal membrane preparation (200 mg) was admixed and maintained (incubated) at 30° C. for 5 minutes in reaction buffer as above that additionally contained 1 mM MgCl2 and 0.5 nM [^35S]GTPgS (0.1 mCi/assay, PerkinElmer Life and Analytical Sciences) in a total volume of 250 ml and continued for 5 minutes in the absence or presence of 0.1-10 mM of an assayed compound of interest. The reaction was terminated by dilution with 750 ml of ice-cold reaction buffer that contained 20 mM MgCl2 and 1 mM EGTA and immediate centrifugation at 16,000×g for 5 minutes.
The resulting pellet was solubilized by sonicating for 10 seconds in 0.5 ml of immunoprecipitation buffer containing 0.5% digitonin, 0.2% sodium cholate and 0.5% NP-40. Normal rabbit serum (1 ml) was added to 1 ml of lysate and incubated at 25° C. for 30 minutes. Nonspecific immune complexes were removed by incubation with 25 ml of protein A/G-conjugated agarose beads at 25° C. for 30 minutes followed by centrifugation at 5,000×g at 4° C. for 5 minutes. The supernatant was divided and separately incubated at 25° C. for 30 minutes with antibodies raised against Gao proteins (1:1,000 dilutions).
The immunocomplexes so formed were collected by incubation at 25° C. for 30 minutes with 40 ml of agarose-conjugated protein A/G beads and centrifugation at 5,000×g at 4° C. for 5 minutes. The pellet was washed and suspended in buffer containing 50 mM Tris-HCl, pH 8.0, and 1% NP-40. The radioactivity in the suspension was determined by liquid scintillation spectrometry. […] DAMGO (1 or 10 mM) was used as a positive control.

[1] = 0.1 μM compound as agonist, Series C-2 table
[2] = 1 μM compound as agonist, Series C-2 table
[3] = 0.1 μM compound as agonist, Series C-1 table
[4] = 1 μM compound as agonist, Series C-1 table

T1 sequence (P33535 whole entry): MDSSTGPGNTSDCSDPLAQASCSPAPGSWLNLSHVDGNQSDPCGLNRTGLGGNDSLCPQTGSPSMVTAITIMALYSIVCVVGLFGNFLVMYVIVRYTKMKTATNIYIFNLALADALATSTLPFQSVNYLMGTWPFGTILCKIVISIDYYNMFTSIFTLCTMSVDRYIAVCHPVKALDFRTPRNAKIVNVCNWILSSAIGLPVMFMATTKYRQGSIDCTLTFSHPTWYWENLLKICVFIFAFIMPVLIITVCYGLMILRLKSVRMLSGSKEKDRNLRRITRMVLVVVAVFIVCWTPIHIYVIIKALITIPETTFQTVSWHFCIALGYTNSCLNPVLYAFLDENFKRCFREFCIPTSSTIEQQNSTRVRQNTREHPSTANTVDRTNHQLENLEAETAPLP

Row | SMILES | MOR agonist activity ([35S]GTPgS binding to Gao) [1] [%] | MOR agonist activity ([35S]GTPgS binding to Gao) (1 μM + BFNA, Series C-2 table) [%] | MOR agonist activity ([35S]GTPgS binding to Gao) [2] [%] | MOR agonist activity ([35S]GTPgS binding to Gao) [3] [%] | MOR agonist activity ([35S]GTPgS binding to Gao) (1 μM + BFNA, Series C-1 table) [%] | MOR agonist activity ([35S]GTPgS binding to Gao) [4] [%]
1 | COc1ccc(S(=O)(=O)N2CCOC23CCNCC3)cc1 [Compound C0027] | 233.2 | 72.2 | 313.9 |  |  | 
2 | COc1ccc(S(=O)(=O)N2CCC3(OCCN3S(=O)(=O)c3ccc(OC)cc3)C3CCCCC32)cc1 (stereo not drawn) [Compound C0144M] |  |  |  | 186.3 | 125.9 | 295.9
3 | COc1ccc(S(=O)(=O)N2CCC3(CC2)OCCN3S(=O)(=O)c2ccc(OC)cc2)cc1 [Compound 7866] |  |  |  | 152.3 | 62.4 | 308.2
4 | CCN1CCC2(CC1)OCCN2S(=O)(=O)c1ccc(C(C)=O)cc1 [Compound C0094M] | 172.5 | 115.3 | 263.5 |  |  | 
5 | COc1ccc(S(=O)(=O)N2CCOC23CCN(C)CC3)cc1 [Compound C0088M] | 276.3 | 177.1 | 355.3 |  |  | 
6 | O=S(=O)(c1ccc(Oc2ccccc2)cc1)N1CCC2(CC1)OCCN2S(=O)(=O)c1ccc(Oc2ccccc2)cc1 [Compound C0149M] |  |  |  | 209.8 | 93.4 | 406.7
7 | O=C(O)c1ccc(C(=O)N2CCC3(CC2)OCCN3S(=O)(=O)c2ccc(C(=O)O)cc2)cc1 [Compound C0021] |  |  |  | 159.7 | 90.7 | 192.0
8 | CCCCN1CCC2(CC1)OCCN2S(=O)(=O)c1ccc(C(C)=O)cc1 [Compound C0101M] | 138.2 | 174.8 | 274.3 |  |  | 
9 | COc1ccc(S(=O)(=O)N2CCOC23CCN(S(=O)(=O)c2ccc(C(C)=O)cc2)CC3)cc1 [Compound C0047] |  |  |  | 142.2 | 80.1 | 206.1
10 | COc1ccc(S(=O)(=O)N2CCOC23CCN(C(=O)OC(C)(C)C)CC3)cc1 [Compound C0043] | 175.4 | 83.3 | 242.6 |  |  | 
11 | COc1ccc(S(=O)(=O)N2CCOC23CCN(CC2CC2)CC3)cc1 [Compound C0090M] | 237.0 | 41.0 | 341.0 |  |  | 
12 | CS(=O)(=O)c1ccc(S(=O)(=O)N2CCOC23CCNCC3)cc1 [Compound C0116M] | 258.4 | 152.0 | 302.8 |  |  | 
13 | CS(=O)(=O)c1ccc(S(=O)(=O)N2CCC3(CC2)OCCN3S(=O)(=O)c2ccc(S(C)(=O)=O)cc2)cc1 [Compound C0009] |  |  |  | 146.3 | 26.4 | 256.2
14 | CC(O)c1ccc(S(=O)(=O)N2CCC3(CC2)OCCN3S(=O)(=O)c2ccc(C(C)O)cc2)cc1 (stereo not drawn) [Compound C0051] |  |  |  | 94.4 | 55.9 | 170.4
15 | O=S(=O)(c1ccccc1Oc1ccccc1)N1CCC2(CC1)NCCO2 [Compound C0149M-2] | 209.8 | 93.4 | 406.7 |  |  | 
16 | CC(=O)c1ccc(C(=O)N2CCOC23CCN(S(=O)(=O)c2ccc(C(C)=O)cc2)CC3)cc1 [Compound C0053] |  |  |  | 104.0 | 93.1 | 157.2

Row | SMILES | MOR agonist activity ([35S]GTPgS binding to Gao) [1] [%] | MOR agonist activity ([35S]GTPgS binding to Gao) (1 μM + BFNA, Series C-2 table) [%] | MOR agonist activity ([35S]GTPgS binding to Gao) [2] [%] | MOR agonist activity ([35S]GTPgS binding to Gao) [3] [%] | MOR agonist activity ([35S]GTPgS binding to Gao) (1 μM + BFNA, Series C-1 table) [%] | MOR agonist activity ([35S]GTPgS binding to Gao) [4] [%]
17 | CC(=O)c1ccc(S(=O)(=O)N2CCC3(CC2)NCC(=O)N3Cc2ccccc2)cc1 [Compound C0082M] |  |  |  | 228.1 | 97.6 | 338.4
18 | CC(=O)N1CCSC12CCN(S(=O)(=O)c1ccc([N+](=O)[O-])cc1)CC2 [Compound C0050] | 110.3 | 59.0 | 127.6 |  |  | 
19 | CCOC(=O)CN1CCC2(CC1)OCCN2S(=O)(=O)c1ccc(C(C)=O)cc1 [Compound C0099M] | 157.2 | 114.7 | 195.7 |  |  | 
20 | C=CCN1CCC2(CC1)OCCN2S(=O)(=O)c1ccc(C(C)=O)cc1 [Compound C0096M] | 186.4 | 127.1 | 328.9 |  |  | 
21 | CC(=O)c1ccc(C(=O)N2CCC3(CC2)OCCN3S(=O)(=O)c2ccc(C(C)=O)cc2)cc1 [Compound C0052] |  |  |  | 108.4 | 42.7 | 162.8
22 | CCN1CCC2(CC1)OCCN2S(=O)(=O)c1ccc(OC)cc1 [Compound C0089M] | 234.5 | 81.9 | 295.3 |  |  | 
23 | O=S(=O)(c1ccc(C(F)(F)F)cc1Br)N1CCC2(CC1)OCCN2S(=O)(=O)c1ccc(C(F)(F)F)cc1Br [Compound C0071] |  |  |  | 276.3 | 177.1 | 355.3
24 | O=S(=O)(c1ccc(Br)cc1)N1CCC2(CC1)OCCN2S(=O)(=O)c1ccc(Br)cc1 [Compound C0025] |  |  |  | 235.7 | 80.2 | 320.7
25 | COc1ccc(S(=O)(=O)N2CCSC23CCNCC3)cc1 [S-C0027] | 156.2 | 56.2 | 286.8 |  |  | 
26 | CC(C)c1ccc(S(=O)(=O)N2CCC3(CC2)OCCN3S(=O)(=O)c2ccc(C(C)C)cc2)cc1 [Compound C0007] |  |  |  | 79.1 | 10.9 | 195.0
27 | COc1ccc(S(=O)(=O)N2CCOC23CCN(C(C)C)CC3)cc1 [Compound C0133M] | 139.4 | 72.4 | 214.8 |  |  | 
28 | O=[N+]([O-])c1ccc(S(=O)(=O)N2CCC3(CC2)NCCCO3)cc1 [Compound C0045] | 149.2 | 105.3 | 238.8 |  |  | 
29 | COc1ccc(C(=O)N2CCC3(CC2)OCCN3C(=O)c2ccc(OC)cc2)cc1 [Compound C0017] |  |  |  | 153.8 | 94.1 | 284.5
30 | O=S(=O)(c1ccc(Br)cc1F)N1CCC2(CC1)OCCN2S(=O)(=O)c1ccc(Br)cc1F [Compound C0078] |  |  |  | 138.1 | 170.7 | 236.6
31 | CC(=O)c1ccc(C(=O)N2CCC3(CC2)OCCN3C(=O)c2ccc(C(C)=O)cc2)cc1 [Compound C0054] |  |  |  | 68.2 | 43.5 | 127.0
32 | N#Cc1ccc(S(=O)(=O)N2CCC3(CC2)OCCN3S(=O)(=O)c2ccc(C#N)cc2)cc1 [Compound C0008] |  |  |  | 71.2 | 2.8 | 201.6

— US20220233512A1, “INHIBITING AN IMMUNE RESPONSE MEDIATED BY ONE OR MORE OF TLR2, RAGE, CCR5, CXCR4 AND CD4” (priority 2020, published 2022)
